# Data: patent US6376488B1, “Benzoxazine α-1 adrenergic compounds” (Abbott Laboratories, priority 2000, dated 2002)
# Counter-ions that a name gives are not always drawn.
# Molecular target: T1, α1d (rat) adrenoreceptor (Rattus norvegicus, UniProt P23944)
# T1 sequence (P23944 1-561): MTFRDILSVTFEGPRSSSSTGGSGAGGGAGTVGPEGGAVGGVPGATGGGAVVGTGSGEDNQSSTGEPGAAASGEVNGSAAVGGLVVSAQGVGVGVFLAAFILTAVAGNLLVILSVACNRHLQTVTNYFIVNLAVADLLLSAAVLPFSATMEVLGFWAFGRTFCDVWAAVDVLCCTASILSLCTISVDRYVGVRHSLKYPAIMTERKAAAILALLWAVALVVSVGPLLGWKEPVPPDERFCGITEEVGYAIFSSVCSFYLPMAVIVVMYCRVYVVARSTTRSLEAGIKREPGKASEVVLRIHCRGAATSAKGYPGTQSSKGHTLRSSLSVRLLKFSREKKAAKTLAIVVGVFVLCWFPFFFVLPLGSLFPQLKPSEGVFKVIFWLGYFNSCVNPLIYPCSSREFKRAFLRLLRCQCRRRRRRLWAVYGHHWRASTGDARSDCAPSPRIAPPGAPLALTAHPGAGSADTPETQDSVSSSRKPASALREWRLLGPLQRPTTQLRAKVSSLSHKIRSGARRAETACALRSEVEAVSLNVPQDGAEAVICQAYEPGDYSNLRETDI
# Experiment: [3H]-prazosin radioligand binding, cloned α1d (rat) adrenoreceptor in LTK cells
# Conditions: cloned receptor in LTK cell membranes, [3H]prazosin 0.2 nM
# Description: Representative compounds of the invention were evaluated for α adrenoreceptor binding affinity in vitro using [^3H]-prazosin as the radioligand and following four cloned α1, adrenoreceptors expressed in LTK cells: α1a (rat), α1a (bovine), α1b : (hampster), and α1d (rat).
# The cDNA clones encoding the α1, adrenoreceptors were obtained from TULCO (Triangle Universities Licensing Consortium, Research Triangle Park, N.C.) and inserted into the eukaryotic expression vector SnaB30. In this vector, expression of the adrenoreceptor gene is under the transcriptional control of an SV40 early promoter. Positive drug selection is provided by a neomycin-resistance gene. Mouse fibroblast cells (LTK) were transfected with the α1 expression plasmids and grown in Dulbecco's modified Eagle's medium (DMEM) containing 10% fetal calf serum and 30 μM G418. Stable G418-resistant parental lines were generated with successful expression of adrenoreceptor protein monitored using radioligand binding techniques. Stable single cell clones derived from the parental lines were screened in adrenoreceptor binding assays to identify clones having high adrenoreceptor density. Roller bottle cultures of the cloned lines were used to provide cell membranes for subsequent adrenoreceptor binding characterization studies. A cell line containing the SnaB30 vector expressing the human erythropoietin gene served as a negative control.
# For adrenoreceptor binding assays, large scale membrane preparations were utilized in which 6 million cells were seeded into small (450 cm^2) Coming tissue culture roller bottles. DMEM (200 mL) containing 10% fetal calf serum and 300 μM G418 were added to each roller bottle. A 95% air/5% CO2 gas mixture (sterile) was injected into each roller bottle prior to sealing, and the bottles were then incubated at 37° C. on a roller rack for 5 days. Cells were refed with fresh medium after 3 days in culture.
# On the fifth day of culture, growth medium was removed from cells grown in roller bottles, and the cells were washed twice with PBS (Sigma, 120 mM NaCl, 2.7 mM KCl, 10 mM Na2HPO4-NaH2PO4, pH=7.4). Cells were detached from the roller bottles by incubating for 15 minutes at 37° C. in a Tris-EDTA solution (10 mM Tris, 100 mM NaCl, 1 mM EDTA, pH=7.4). The cell suspension from each roller bottle was decanted into tared centrifuge tubes and kept on ice. An aliquot of each cell suspension was generally taken for cell counting. Cells were centrifuged at 3000×G for 5 minutes at 2-4° C., washed with PBS and recentrifuged. The supernatant was decanted, and the pellet was weighed to determine the wet weight of cells. Cells were washed a final time in 40 vol 5 mM Tris-HCl, 5 mM EDTA, pH=7.7 and centrifuged at 40,000×G for 10 minutes (“vol” indicates volume/weight, e.g., a “vol” of 40 would indicate that the one gram of cells were washed with 40 mls of buffer). Cells were homogenized in of 50 mM Tris-HCl, 5 mM EDTA (pH=7.4) (10 mL) and diluted to 40 mL/tube. Homogenates were centrifuged at 40,000×G for 10 minutes. The supernatant was decanted and the pellets rehomogenized in 50 mM Tris-HCl (pH=7.4) and centrifuged as before. The supernatant was decanted and the homogenate was resuspended in 6.25 volumes (per gram wet weight) of 50 mM Tris-HCl and aliquots of the pooled homogenates frozen in liquid N2 and,stored at −70° C. until the time of assay.
# Receptor binding assays for α1 adrenoreceptors were performed essentially as described by Greengrass and Bremner (Eur. J. Pharmacol. 55: 323-326 (1979)). […] Following equilibration, bound radioligand was separated from free on GF/B filters (presoaked in 0.5% polyethyleneimine) using ither a Brandel or Packard cell harvester. Radioactivity was determined by standard liquid scintillation techniques. Data were analyzed as previously described (Hancock, A. A., Kyncl, J. J., Martin, Y. C. and DeBemardis, J. F., J. Receptor Res. 8: 23-46 (1988)). The in Table 1.
row,SMILES,Ki
1,"Cl.Cl.O=c1[nH]c2c(sc3cccnc32)c(=O)n1CCCN1CCN2c3ccccc3OCC2C1 (single isomer, unassigned; (+)) [Example 1, (+) 3-[3-(1,2,4a,5-tetrahydropyrazino[2,1-c][1,4]benzoxazin-3(4H)-yl)propyl]pyrido[2′,3′:4,5]thieno[3,2-d]pyrimidine-2,4(1H,3H)-dione dihydrochloride]",5.89 nM
2,"COc1cccc2c1N1CCN(CCn3c(=O)[nH]c4c(sc5ncc(Cl)nc54)c3=O)CC1CO2.Cl.Cl (single isomer, unassigned; (+)) [Example 8, (+) 3-[2-(10-methoxy-1,2,4a,5-tetrahydropyrazino[2,1-c][1,4]benzoxazin-3(4H)-yl)ethyl]-8-chloropyrazino[2′,3′:4,5]thieno[3,2-d]pyrimidine-2,4(1H,3H)-dione dihydrochloride]",5.08 nM
3,"COc1cccc2c1N1CCN(CCCCn3c(=O)[nH]c4c(sc5cccnc54)c3=O)CC1CO2 (single isomer, unassigned; (+)) [Example 14, (+) 3-[4-(10-methoxy-1,2,4a,5-tetrahydropyrazino[2,1-c][1,4]benzoxazin-3(4H)-yl)butyl]pyido [2′,3′:4,5]thieno[3,2-d]pyrimidine-2,4(1H,3H)-dione trihydrochloride]",2.16 nM
4,"COc1cccc2c1N1CCN(CCCCn3c(=O)[nH]c4c(sc5ncccc54)c3=O)CC1CO2.Cl.Cl.Cl (single isomer, unassigned; (+)) [Example 15, (+) 3-[4-(10-methoxy-1,2,4a,5-tetrahydropyrazino[2,1-c][1,4]benzoxazin-3(4H)-yl)butyl]pyrido[3′,2′:4,5]thieno[3,2-d]pyrimidine-2,4(1H,3H)-dione trihydrochloride]",1.3 nM
5,"O=c1[nH]c2c(sc3cccnc32)c(=O)n1CCCN1CCN2c3ccccc3OCC2C1 (single isomer, unassigned; (-)) [Example 2, (−) 3-[3-(1,2,4a,5-tetrahydropyrazino[2,1-c][1,4]benzoxazin-3(4H)-yl)propyl]pyrido[2′,3′:4,5]thieno[3,2-d]pyrimidine-2,4(1H,3H)-dione dihydrochloride]",69.8 nM
6,"COc1cccc2c1N1CCN(CCn3c(=O)[nH]c4c(sc5cccnc54)c3=O)CC1CO2.Cl.Cl (single isomer, unassigned; (-)) [Example 7, (−) 3-[2-(10methoxy-1,2,4a,5-tetrahydropyrazino[2,1-c][1,4]benzoxazin-3(4H)-yl)ethyl]pyrido[2′,3′:4,5]thieno[3,2-d]pyrimidine-2,4(1H,3H)-dione dihydrochloride]",1.13 nM
7,"COc1cccc2c1N1CCN(CCCCn3c(=O)[nH]c4c(sc5ncc(Cl)nc54)c3=O)CC1CO2.Cl.Cl (single isomer, unassigned; (-)) [Example 12, (−) 3-[4-(10-methoxy-1,2,4a,5-tetrahydropyrazino[2,1-c][1,4]benzoxazin-3(4H)-yl)butyl]-8-chloropyrazino[2′,3′:4,5]thieno[3,2-d]pyrimidine-2,4(1H,3H)-dione dihydrochloride]",1.15 nM
8,"COc1cccc2c1N1CCN(CCn3c(=O)[nH]c4c(sc5ncc(Cl)nc54)c3=O)CC1CO2.Cl.Cl (single isomer, unassigned; (-)) [Example 13, (−) 3-[2-(10-methoxy-1,2,4a,5-tetrahydropyrazino[2,1-c][1,4]benzoxazin-3(4H)-yl)ethyl]-8-chloropyrazino[2′,3′:4,5]thieno[3,2-d]pyrimidine-2,4(1H,3H)-dione dihydrochloride]",3.52 nM

# Next, values leading:
row,Ki,SMILES
1,5 nM,"Cl.Cl.O=c1[nH]c2c(sc3cccnc32)c(=O)n1CCCCN1CCN2c3ccccc3OCC2C1 (single isomer, unassigned; (+)) [Example 3, (+) 3-[4-(1,2,4a,5-tetrahydropyrazino[2,1-c][1,4]benzoxazin-3(4H)-yl)butyl]pyrido[2′, 3′:4,5]thieno[3,2-d]pyrimidine-2,4(1H,3H)-dione dihydrochloride]"
2,4.26 nM,"Cl.Cl.O=c1[nH]c2c(sc3ncccc32)c(=O)n1CCCCN1CCN2c3ccccc3OCC2C1 (single isomer, unassigned; (+)) [Example 5, (+) 3-[4-(1,2,4a,5-tetrahydropyrazino[2,1-c][1,4]benzoxazin-3(4H)-yl)butyl]pyrido[3′, 2′:4,5]thieno[3,2-d]pyrimidine-2,4(1H,3H)-dione dihydrochloride]"
3,2.01 nM,"COc1cccc2c1N1CCN(CCn3c(=O)[nH]c4c(sc5cccnc54)c3=O)CC1CO2.Cl.Cl.Cl (single isomer, unassigned; (+)) [Example 16, (+) 3-[2-(10-methoxy-1,2,4a,5-tetrahydropyrazino[2,1-c][1,4]benzoxazin-3(4H)-yl)ethyl]pyrido[2′,3′:4,5]thieno[3,2-d]pyrimidine-2,4(1H,3H)-dione trihydrochloride]"
4,20.5 nM,"COc1cccc2c1N1CCN(CCCn3c(=O)[nH]c4c(sc5cccnc54)c3=O)CC1CO2.Cl.Cl.Cl (single isomer, unassigned; (+)) [Example 17, (+) 3-[3-(10-methoxy-1,2,4a,5-tetrahydropyrazino[2,1-c][1,4]benzoxazin-3(4H)-yl)propyl]pyrido[2′,3′:4,5]thieno[3,2-d]pyrimidine-2,4(1H,3H)-dione trihydrochloride]"
5,19.5 nM,"O=c1[nH]c2c(sc3cccnc32)c(=O)n1CCCCN1CCN2c3ccccc3OCC2C1 (single isomer, unassigned; (-)) [Example 4, (−) 3-[4-(1.2,4a,5-tetrahydropyrazino[2,1-c][1,4benzoxazin-3(4H)-yl)butyl]pyrido[2′,3′:4,5]thieno[3,2-d]pyrimidine-2,4(1H,3H)-dione dihydrochloride]"
6,16.9 nM,"Cl.Cl.O=c1[nH]c2c(sc3ncccc32)c(=O)n1CCCCN1CCN2c3ccccc3OCC2C1 (single isomer, unassigned; (-)) [Example 6, (−) 3-[4-(1,2,4a,5-tetrahydropyrazino[2,1-c][1,4]benzoxazin-3(4H)-yl)butyl]pyrido[3′, 2′:4,5]thieno[3,2-d]pyrimidine-2,4(1H,3H)-dione dihydrochloride]"
7,1.28 nM,"COc1cccc2c1N1CCN(CCCn3c(=O)[nH]c4c(sc5cccnc54)c3=O)CC1CO2.Cl.Cl.Cl (single isomer, unassigned; (-)) [Example 9, (−) 3-[3-(10-methoxy-1,2,4a,5-tetrahydropyrazino[2,1-c][1,4]benzoxazin-3(4H)-yl)propyl]pyrido[2′,3′:4,5]thieno[3,2-d]pyrimidine-2,4(1H, 3H)-dione trihydrochloride]"
8,0.427 nM,"COc1cccc2c1N1CCN(CCCCn3c(=O)[nH]c4c(sc5ncccc54)c3=O)CC1CO2 (single isomer, unassigned; (-)) [Example 11, (−) 3-[4-(10-methoxy-1,2,4a,5-tetrahydropyrazino[2,1-c][1,4]benzoxazin-3(4H)-yl)butyl]pyrido[3′,2′:4.5]thieno[3,2-d]pyrimidine-2,4(1H,3H)-dione trihydrochloride]"
